target: T1, MAGL (Homo sapiens, UniProt Q99685); assay: 2-AG assay (MAGL inhibitory activity, hydrolysis of 2-arachidonoylglycerol to arachidonic acid followed by mass spectrometry); format: biochemical; conditions: 8 μM 2-arachidonoylglycerol, 15 min pre-incubation, 30 min incubation at RT, RapidFire MS readout
T1 sequence (Q99685 1-303): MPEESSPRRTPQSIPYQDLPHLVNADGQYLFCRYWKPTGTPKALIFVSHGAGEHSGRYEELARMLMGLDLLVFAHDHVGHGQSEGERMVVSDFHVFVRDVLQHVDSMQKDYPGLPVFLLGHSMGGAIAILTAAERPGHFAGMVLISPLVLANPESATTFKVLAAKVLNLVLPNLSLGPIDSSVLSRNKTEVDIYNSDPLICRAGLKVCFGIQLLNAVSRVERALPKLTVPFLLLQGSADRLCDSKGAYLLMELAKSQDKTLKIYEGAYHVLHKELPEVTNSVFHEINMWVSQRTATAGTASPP
Description: Compounds of formula (I) were profiled for MAGL inhibitory activity by determining the enzymatic activity by following the hydrolysis of the natural substrate 2-arachidonoylglycerol (2-AG) resulting in arachidonic acid, which can be followed by mass spectrometry. This assay is hereinafter abbreviated “2-AG assay”.
Compounds of formula (I) were profiled for MAGL inhibitory activity by determining the enzymatic activity by following the hydrolysis of the natural substrate 2-arachidonoylglycerol (2-AG) resulting in arachidonic acid, which can be followed by mass spectrometry. This assay is hereinafter abbreviated “2-AG assay”. The 2-AG assay was carried out in 384 well polypropylene assay plates. […] Compound dilutions were added to MAGL protein in assay buffer (50 mM TRIS, 1 mM EDTA, 0.01% (v/v) Tween-20, 2.5% (v/v) DMSO). After shaking, the plate was incubated for 15 min at RT. To start the reaction, 2-arachidonoylglycerol in assay buffer was added. The final concentrations in the assay was […] for MAGL protein and 8 μM 2-arachidonoylglyerol. After shaking and 30 min incubation at RT, the reaction was quenched by the addition of two assay volumes of acetonitrile containing 4 μM of d8-arachidonic acid. The amount of arachidonic acid formed was traced by an online SPE system (Agilent Rapidfire) coupled to a triple quadrupole mass spectrometer. A C18 SPE cartridge (Agilent G9205A) was used in an acetonitrile/water liquid setup. The mass spectrometer was operated in negative electrospray mode following the mass transitions 303.1→259.1 for arachidonic acid and 311.1→267.0 for d8-arachidonic acid. The activity of the compounds was calculated based on the ratio of intensities [arachidonic acid/d8-arachidonic acid].

IC50 [nM]	Compound
5.4	O=C(N1C[C@H]2C[C@H](Oc3ccc(F)cc3F)C[C@H]2C1)N1CC2(CC(n3cnc(C4CC4)n3)C2)C1 [Example 121, [6-(3-cyclopropyl-1,2,4-triazol-1-yl)-2-azaspiro[3.3]heptan-2-yl]-[rac-(3aS,6aR)-5-(2,4-difluorophenoxy)-3,3a,4,5,6,6a-hexahydro-1H-cyclopenta[c]pyrrol-2-yl]methanone]
50	O=C(c1cnc(OCC2(C(F)(F)F)CC2)c(F)c1)N1CC2(CC(n3cnc(C4CC4)c3)C2)C1 [Example 28, [6-(4-cyclopropylimidazol-1-yl)-2-azaspiro[3.3]heptan-2-yl]-[5-fluoro-6-[[1-(trifluoromethyl)cyclo-propyl]methoxy]-3-pyridyl]methanone]
401	COc1cc(C(F)(F)F)ccc1CNC1CN(C(=O)N2CC3(CC(n4cnc(C5(O)CC5)n4)C3)C2)C1 [Example 393, [6-[3-(1-hydroxycyclopropyl)-1,2,4-triazol-1-yl]-2-azaspiro[3.3]heptan-2-yl]-[3-[[2-methoxy-4-(trifluoromethyl)phenyl]methylamino]azetidin-1-yl]methanone]
1010	CC(C)(C)c1nc(-c2ccc(C(=O)N3CC4(CC(n5cnc(C#N)c5)C4)C3)cc2)no1 [Example 160, 1-[2-[4-(5-tert-butyl-1,2,4-oxadiazol-3-yl)benzoyl]-2-azaspiro[3.3]heptan-6-yl]imidazole-4-carbonitrile]
1.73	O=C(N1CC2(CC(n3cnc(C4(O)CC4)n3)C2)C1)N1CC2(CC[C@@H](Cc3ccc(S(=O)(=O)C(F)(F)F)cc3)C2)C1 [Example 362, [6-[3-(1-hydroxycyclopropyl)-1,2,4-triazol-1-yl]-2-azaspiro[3.3]heptan-2-yl]-[(6S)-6-[[4-(trifluoromethylsulfonyl)phenyl]methyl]-2-azaspiro[3.4]octan-2-yl]methanone]
0.57	O=C(N1CC2(CC(Cc3ccc(F)cc3F)C2)C1)N1CC2(CC(c3cncc(F)c3)C2)C1 [Example 380, [6-[(2,4-difluorophenyl)methyl]-2-azaspiro[3.3]heptan-2-yl]-[6-(5-fluoro-3-pyridyl)-2-azaspiro[3.3]heptan-2-yl]methanone]
95.8	O=C(N1CC2(CC(Cc3ccc(C(F)(F)F)nc3)C2)C1)N1CC2(CC(c3cncc(F)c3)C2)C1 [Example 515, [6-(5-fluoro-3-pyridyl)-2-azaspiro[3.3]heptan-2-yl]-[6-[[6-(trifluoromethyl)-3-pyridyl]methyl]-2-azaspiro[3.3]heptan-2-yl]methanone]
54.3	O=C(N1CC(Oc2cc(C(F)(F)F)ncn2)C1)N1CC2(CC(n3cnc(C4CC4)n3)C2)C1 [Example 285, [6-(3-cyclopropyl-1,2,4-triazol-1-yl)-2-azaspiro[3.3]heptan-2-yl]-[3-[6-(trifluoromethyl)pyrimidin-4-yl]oxyazetidin-1-yl]methanone]
1.53	NC(=O)C1CC(F)(F)CCN1c1ccc(C2CN(C(=O)N3CC4(CC(n5cnc(C6CC6)n5)C4)C3)C2)cc1 (stereo not drawn) [Example 503, 1-[4-[1-[6-(3-cyclopropyl-1,2,4-triazol-1-yl)-2-azaspiro[3.3]heptane-2-carbonyl]azetidin-3-yl]phenyl]-4,4-difluoro-piperidine-2-carboxamide]
8.68	O=C(N1CC2(CCC(Cc3ccc(C(F)(F)F)cn3)C2)C1)N1CC2(CC(n3cnc(C4(O)CC4)n3)C2)C1 (stereo not drawn) [Example 389, [6-[3-(1-hydroxycyclopropyl)-1,2,4-triazol-1-yl]-2-azaspiro[3.3]heptan-2-yl]-[6-[[5-(trifluoromethyl)-2-pyridyl]methyl]-2-azaspiro[3.4]octan-2-yl]methanone]
39.6	CS(=O)(=O)c1ccc(CN2CC3(C2)CN(C(=O)N2CC4(CC(n5cnc(C6CC6)n5)C4)C2)C3)cc1 [Example 500, [6-(3-cyclopropyl-1,2,4-triazol-1-yl)-2-azaspiro[3.3]heptan-2-yl]-[6-[(4-methylsulfonylphenyl)methyl]-2,6-diazaspiro[3.3]heptan-2-yl]methanone]
0.7	O=C(N1CC(c2ccc(OC(F)(F)F)c(Cl)c2)C1)N1CC2(CC(n3cnc(C4CC4)n3)C2)C1 [Example 53, [3-[3-chloro-4-(trifluoromethoxy)phe-nyl]azetidin-1-yl]-[6-(3-cyclopropyl-1,2,4-triazol-1-yl)-2-azaspiro[3.3]heptan-2-yl]methanone]
0.16	O=C(N1CC(c2ccc(NCC3(C(F)(F)F)CC3)nc2)C1)N1CC2(CC(n3cnc(C(F)(F)F)n3)C2)C1 [Example 424, [3-[6-[[1-(trifluoromethyl)cyclopropyl]methylamino]-3-pyridyl]azetidin-1-yl]-[6-[3-(trifluoromethyl)-1,2,4-triazol-1-yl]-2-azaspiro[3.3]heptan-2-yl]methanone]
2.7	O=C(N1CC(OCc2ccc(OC(F)(F)F)cc2F)C1)N1CC2(CC(n3cnc(C4CC4)n3)C2)C1 [Example 75, (6-(3-cyclopropyl-1H-1,2,4-triazol-1-yl)-2-azaspiro[3.3]heptan-2-yl)(3-((2-fluoro-4-(trifluoromethoxy)ben-zyl)oxy)azetidin-1-yl)methanone]
0.4	O=C(N1CC(c2ccc(OC(F)(F)F)cc2F)C1)N1CC2(CC(n3cnc(C4CC4)n3)C2)C1 [Example 86, [6-(3-cyclopropyl-1,2,4-triazol-1-yl)-2-azaspiro[3.3]heptan-2-yl]-[3-[2-fluoro-4-(trifluoromethoxy)phenyl]azetidin-1-yl]methanone]
2.01	O=C(N1CC2(CC(Cc3ccc4[nH]ncc4n3)C2)C1)N1CC2(CC(n3cnc(C4CC4)n3)C2)C1 [Example 357, [6-(3-cyclopropyl-1,2,4-triazol-1-yl)-2-azaspiro[3.3]heptan-2-yl]-[6-(1H-pyrazolo[4,3-b]pyridin-5-ylmethyl)-2-azaspiro[3.3]heptan-2-yl]methanone]
15.7	CS(=O)(=O)c1ccc(C2CC3(C2)CN(C(=O)N2CC4(CC(Cc5ccc(F)cc5F)C4)C2)C3)cc1 [Example 346, [6-[(2,4-difluorophenyl)methyl]-2-azaspiro[3.3]heptan-2-yl]-[6-(4-methylsulfonylphenyl)-2-azaspiro[3.3]heptan-2-yl]methanone]
1.28	NC(=O)[C@H]1CC(F)(F)CCN1c1ccc(C2CN(C(=O)N3CC4(CC(n5cnc(C6CC6)n5)C4)C3)C2)cc1 (single isomer, unassigned) [Example 493]
62	CC1(S(=O)(=O)N2CC3(CN(C(=O)N4CC5(CC(n6cnc(C7CC7)n6)C5)C4)C3)C2)CC1 [Example 288, [6-(3-cyclopropyl-1,2,4-triazol-1-yl)-2-azaspiro[3.3]heptan-2-yl]-[2-(1-methylcyclopropyl)sulfonyl-2,6-diazaspiro[3.3]heptan-6-yl]methanone]
3.5	O=C(N1C[C@H]2C[C@H](Oc3ccc(C(F)(F)F)c(F)c3)C[C@H]2C1)N1CC2(CC(n3cnc(C4CC4)n3)C2)C1 [Example 117, [6-(3-cyclopropyl-1,2,4-triazol-1-yl)-2-azaspiro[3.3]heptan-2-yl]-[rac-(3aS,6aR)-5-[3-fluoro-4-(trifluoromethyl)phenoxy]-3,3a,4,5,6,6a-hexahydro-1H-cyclopenta[c]pyrrol-2-yl]methanone]
70.7	COc1cc(F)ccc1S(=O)(=O)N1CC2(CN(C(=O)N3CC4(CC(n5cnc(C6CC6)n5)C4)C3)C2)C1 [Example 290, [6-(3-cyclopropyl-1,2,4-triazol-1-yl)-2-azaspiro[3.3]heptan-2-yl]-[2-(4-fluoro-2-methoxy-phenyl)sulfonyl-2,6-diazaspiro[3.3]heptan-6-yl]methanone]
58.6	O=C(N1CC2(CC(n3cnc(C4CC4)n3)C2)C1)N1CC2(C1)CN(S(=O)(=O)c1cccc(Cl)n1)C2 [Example 286, [2-[(6-chloro-2-pyridyl)sulfonyl]-2,6-diazaspiro[3.3]heptan-6-yl]-[6-(3-cyclopropyl-1,2,4-triazol-1-yl)-2-azaspiro[3.3]heptan-2-yl]methanone]
4.07	CP(C)(=O)c1ccc(CC2CC3(C2)CN(C(=O)N2CC4(CC(n5cnc(C6CC6)n5)C4)C2)C3)cc1 [Example 376, [6-(3-cyclopropyl-1,2,4-triazol-1-yl)-2-azaspiro[3.3]heptan-2-yl]-[6-[(4-dimethyl-phosphorylphenyl)methyl]-2-azaspiro[3.3]heptan-2-yl]methanone]
7.7	Cc1cc(C(=O)N2CC3(CC(n4cnc(C5CC5)n4)C3)C2)cnc1OCC1(C(F)(F)F)CC1 [Example 24, [6-(3-cyclopropyl-1,2,4-triazol-1-yl)-2-azaspiro[3.3]heptan-2-yl]-[5-methyl-6-[[1-(trifluoromethyl)cyclo-propyl]methoxy]-3-pyridyl]methanone]

— patent US20240199587A1, “HETEROCYCLIC COMPOUNDS” (Hoffmann-La Roche Inc., priority 2021, published 2024)
